Values of other authors in patent US7198802B2, “Tablet obtained by direct compression comprising 4-amino-1-hydroxybutylidene-1,1-bisphosphonic acid as active ingredient” (Zentiva A.S., priority 2000, dated 2007).

Settings: atmospheric relative humidity

relative humidity at which moisture / water content rises | Structure (SMILES)
above 90% | OC[C@H]1O[C@@H](O[C@H]2[C@H](O)[C@@H](O)C(O)O[C@@H]2CO)[C@H](O)[C@@H](O)[C@H]1O (some centres unmarked) [Lactose]
about 98% | OC[C@@H](O)[C@@H](O)[C@H](O)[C@H](O)CO [mannitol, Mannitol]
